Source: patent US10479780B2, “Aminopyrazole derivatives” (Chugai Seiyaku Kabushiki Kaisha, priority 2015, dated 2019)

Assays:
Assay type in all cases: biochemical
human Yes1 enzyme = biological target: T1, human Yes1 enzyme (Homo sapiens, UniProt P07947); assay: Yes1 enzyme inhibitory activity (time-resolved fluorometry, biotinylated peptide phosphorylation); details: biotinylated peptide phosphorylation, read-out: YES_IC50
T1 construct: made in house
Outline: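 Inhibition was expressed against a compound-free control to give IC50, using TR-FRET read-out (Eu-cryptate anti-pTyr antibody, streptavidin-XL665).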

human Lck enzyme = biological target: T2, human Lck enzyme (Homo sapiens, UniProt P06239); assay: Lck enzyme inhibitory activity (time-resolved fluorometry, biotinylated peptide phosphorylation); details: biotinylated peptide phosphorylation, read-out: LCK_IC50
T2 construct: purchased Carna Biosciences, Inc. 08-170
Outline: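 Readout pairs a europium cryptate-labelled anti-phosphotyrosine antibody with XL665-streptavidin, measured by time-resolved fluorescence. IC50 derived from percent inhibition against untreated controls.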

human Src enzyme = biological target: T3, human Src enzyme (Homo sapiens, UniProt P12931); assay: Src enzyme inhibitory activity (time-resolved fluorometry, biotinylated peptide phosphorylation); details: biotinylated peptide phosphorylation, read-out: SRC_IC50
T3 construct: purchased Carna Biosciences, Inc. 08-173
Outline: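 Compounds were tested for blocking tyrosine phosphorylation of a biotinylated peptide substrate by recombinant human Src. Phosphorylated product was quantified by time-resolved fluorometry using europium cryptate and XL665 conjugates, and IC50 was calculated against the compound-free control.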

T2 sequence (P06239 whole entry): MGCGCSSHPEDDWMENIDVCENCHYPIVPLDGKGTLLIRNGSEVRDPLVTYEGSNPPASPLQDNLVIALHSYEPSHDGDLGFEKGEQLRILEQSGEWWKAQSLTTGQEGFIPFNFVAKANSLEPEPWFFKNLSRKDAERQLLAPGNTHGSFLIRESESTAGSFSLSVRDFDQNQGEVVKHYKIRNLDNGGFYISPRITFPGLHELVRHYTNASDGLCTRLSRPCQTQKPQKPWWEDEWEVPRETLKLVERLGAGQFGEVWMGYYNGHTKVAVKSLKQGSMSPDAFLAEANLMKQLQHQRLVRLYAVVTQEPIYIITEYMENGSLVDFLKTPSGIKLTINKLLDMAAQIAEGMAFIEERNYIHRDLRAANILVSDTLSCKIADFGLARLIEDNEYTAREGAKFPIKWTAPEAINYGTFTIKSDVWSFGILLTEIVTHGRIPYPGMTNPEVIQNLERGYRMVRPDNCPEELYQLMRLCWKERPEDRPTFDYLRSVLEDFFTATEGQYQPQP
T3 sequence (P12931 whole entry): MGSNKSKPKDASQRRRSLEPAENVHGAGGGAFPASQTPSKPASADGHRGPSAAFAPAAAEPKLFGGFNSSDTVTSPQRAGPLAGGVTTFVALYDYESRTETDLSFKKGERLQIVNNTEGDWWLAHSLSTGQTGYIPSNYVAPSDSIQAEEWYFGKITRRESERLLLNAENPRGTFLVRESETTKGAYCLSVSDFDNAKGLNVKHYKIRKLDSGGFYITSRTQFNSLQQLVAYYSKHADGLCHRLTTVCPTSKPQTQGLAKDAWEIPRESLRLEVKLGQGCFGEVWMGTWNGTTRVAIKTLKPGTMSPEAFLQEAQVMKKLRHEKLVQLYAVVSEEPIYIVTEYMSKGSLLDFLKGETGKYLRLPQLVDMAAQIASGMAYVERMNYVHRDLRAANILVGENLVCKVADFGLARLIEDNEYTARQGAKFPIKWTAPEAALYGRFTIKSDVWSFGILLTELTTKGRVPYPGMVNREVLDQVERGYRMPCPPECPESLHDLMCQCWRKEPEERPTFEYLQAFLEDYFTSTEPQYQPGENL
T1 sequence (P07947 whole entry): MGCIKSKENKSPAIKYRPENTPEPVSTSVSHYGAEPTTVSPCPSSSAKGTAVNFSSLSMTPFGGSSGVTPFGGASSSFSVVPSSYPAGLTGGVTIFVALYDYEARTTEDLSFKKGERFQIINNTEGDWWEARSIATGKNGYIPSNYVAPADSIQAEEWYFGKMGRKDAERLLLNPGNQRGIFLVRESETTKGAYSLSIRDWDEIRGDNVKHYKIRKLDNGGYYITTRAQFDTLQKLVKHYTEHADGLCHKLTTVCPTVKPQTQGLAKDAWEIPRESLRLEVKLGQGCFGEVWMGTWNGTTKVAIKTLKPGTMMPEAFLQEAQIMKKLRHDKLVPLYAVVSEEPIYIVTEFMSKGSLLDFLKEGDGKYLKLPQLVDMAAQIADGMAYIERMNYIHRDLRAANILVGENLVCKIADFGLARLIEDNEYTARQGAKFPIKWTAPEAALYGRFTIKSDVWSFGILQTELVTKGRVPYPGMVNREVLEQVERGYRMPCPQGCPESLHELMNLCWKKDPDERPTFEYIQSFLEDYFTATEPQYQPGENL

| Compound | IC50 (human Yes1 enzyme) [nM] | IC50 (human Lck enzyme) [nM] | IC50 (human Src enzyme) [nM] |
| --- | --- | --- | --- |
| COc1cc2cc(C(=O)c3cnn(-c4cnc(Oc5ccccc5F)cc4C)c3N)[nH]c2cc1NS(=O)(=O)CC(=O)N1CCOCC1 [Example 4-10-016, N-[2-[5-amino-1-[6-(2-fluorophenoxy)-4-methylpyridin-3-yl]pyrazole-4-carbonyl]-5-methoxy-1H-indol-6-yl]-2-morpholin-4-yl-2-oxoethanesulfonamide] | 0.59 | 5.8 | 17 |
| COc1cc2cc(C(=O)c3cnn(-c4cnc(Oc5c(F)cccc5F)cc4C)c3N)[nH]c2cc1NS(=O)(=O)CC(=O)N1CCCC1 [Example 4-10-017, N-[2-[5-amino-1-[6-(2,6-difluorophenoxy)-4-methylpyridin-3-yl]pyrazole-4-carbonyl]-5-methoxy-1H-indol-6-yl]-2-oxo-2-pyrrolidin-1-ylethanesulfonamide] | 0.93 | 11 | 32 |
| COc1cc2cc(C(=O)c3cnn(-c4cnc(Oc5ccccc5F)cc4C)c3N)[nH]c2cc1NC(C)=O [Example 4-11-001, N-{2-{5-amino-1-[6-(2-fluorophenoxy)-4-methylpyridin-3-yl]pyrazole-4-carbonyl}-5-methoxy-1H-indol-6-yl}acetamide] | 1.5 | 5.6 | 33 |
| COc1cc2cc(C(=O)c3cnn(-c4cnc(Oc5ccccc5F)cc4C)c3N)[nH]c2cc1NS(=O)(=O)N1CCOCC1 [Example 4-12-001, N-{2-{5-amino-1-[6-(2-fluorophenoxy)-4-methylpyridin-3-yl]pyrazole-4-carbonyl}-5-methoxy-1H-indol-6-yl}morpholine-4-sulfonamide] | 2.9 | 45 | 140 |
| COc1cc2cc(C(=O)c3cnn(-c4cnc(Oc5ccccc5F)cc4C)c3N)[nH]c2cc1NC(=O)N1CCOCC1 [Example 4-12-002, N-[2-[5-amino-1-[6-(2-fluorophenoxy)-4-methylpyridin-3-yl]pyrazole-4-carbonyl]-5-methoxy-1H-indol-6-yl]morpholine-4-carboxamide] | 3.2 | 8 | 40 |
| COc1cc2cc(C(=O)c3cnn(-c4ccc(Oc5ccccc5F)cc4C)c3N)[nH]c2cc1NS(=O)(=O)N1CCOCC1 [Example 4-12-003, N-[2-[5-amino-1-[4-(2-fluorophenoxy)-2-methylphenyl]pyrazole-4-carbonyl]-5-methoxy-1H-indol-6-yl]morpholine-4-sulfonamide] | 0.54 | 14 | 45 |
| COc1cc2cc(C(=O)c3cnn(-c4cnc(Oc5ccccc5F)cc4C)c3N)[nH]c2cc1NS(=O)(=O)CCCF [Example 4-13-001, N-{2-{5-amino-1-[6-(2-fluorophenoxy)-4-methylpyridin-3-yl]pyrazole-4-carbonyl}-5-methoxy-1H-indol-6-yl}-3-fluoropropane-1-sulfonamide] | 2.4 | 26 | 76 |
| COc1cc2cc(C(=O)c3cnn(-c4ccc(Oc5ccccc5F)cc4C)c3N)[nH]c2cc1NS(=O)(=O)CCCF [Example 4-13-002, N-[2-[5-amino-1-[4-(2-fluorophenoxy)-2-methylphenyl]pyrazole-4-carbonyl]-5-methoxy-1H-indol-6-yl]-3-fluoropropane-1-sulfonamide] | 2.4 | 20 | 27 |

The remaining lines, values ahead:

| IC50 (human Yes1 enzyme) [nM] | IC50 (human Lck enzyme) [nM] | IC50 (human Src enzyme) [nM] | Compound |
| --- | --- | --- | --- |
| 1.2 | 5.8 | 21 | COc1cc2cc(C(=O)c3cnn(-c4cnc(Oc5ccccc5F)cc4C)c3N)[nH]c2cc1N1CCCS1(=O)=O [Example 4-14-001, {5-amino-1-[6-(2-fluorophenoxy)-4-methylpyridin-3-yl]pyrazol-4-yl}-[6-(1,1-dioxo-1,2-thiazolidin-2-yl)-5-methoxy-1H-indol-2-yl]methanone] |
| 1.4 | 5.6 | 8.8 | COc1cc2cc(C(=O)c3cnn(-c4ccc(Oc5ccccc5F)cc4C)c3N)[nH]c2cc1N1CCCS1(=O)=O [Example 4-14-002, [5-amino-1-[4-(2-fluorophenoxy)-2-methylphenyl]pyrazol-4-yl]-[6-(1,1-dioxo-1,2-thiazolidin-2-yl)-5-methoxy-1H-indol-2-yl]methanone] |
| 1.1 | 9.9 | 18 | Cc1cc2cc(C(=O)c3cnn(-c4cnc(Oc5ccccc5F)cc4C)c3N)[nH]c2cc1NS(=O)(=O)CC(=O)N1CCOCC1 [Example 4-15-001, N-(2-(5-amino-1-(6-(2-fluorophenoxy)-4-methylpyridin-3-yl)-1H-pyrazole-4-carbonyl)-5-methyl-1H-indol-6-yl)-2-morpholino-2-oxoethanesulfonamide] |
| 0.62 | 4.5 | 16 | Cc1cc2cc(C(=O)c3cnn(-c4cnc(Oc5ccccc5F)cc4C)c3N)[nH]c2cc1N1CCCS1(=O)=O [Example 4-16-001, {5-amino-1-[6-(2-fluorophenoxy)-4-methylpyridin-3-yl]pyrazol-4-yl}-[6-(1,1-dioxo-1,2-thiazolidin-2-yl)-5-methyl-1H-indol-2-yl]methanone] |
| 4.5 | 12 | 26 | CC(=O)N1CCC(c2cc3[nH]c(C(=O)c4cnn(-c5cnc(Oc6c(F)cccc6F)cc5C)c4N)cc3cc2OCC(F)F)CC1 [Example 4-17-001, 1-{4-{2-{5-amino-1-{6-(2,6-difluorophenoxy)-4-methylpyridin-3-yl}pyrazole-4-carbonyl}-5-(2,2-difluoroethoxy)-1H-indol-6-yl}piperidin-1-yl}ethanone] |
| 10 | 18 | 43 | CC(=O)N1CCC(c2cc3[nH]c(C(=O)c4cnn(-c5ccc(Oc6ccccc6F)cc5C)c4N)cc3cc2OC(F)F)CC1 [Example 4-17-002, 1-[4-[2-[5-amino-1-[4-(2-fluorophenoxy)-2-methylphenyl]pyrazole-4-carbonyl]-5-(difluoromethoxy)-1H-indol-6-yl]piperidin-1-yl]ethanone] |
| 7.4 | 20 | 23 | Cc1cc(Oc2ccccc2F)ccc1-n1ncc(C(=O)c2cc3cc(OC(F)F)c(C4CCN(S(C)(=O)=O)CC4)cc3[nH]2)c1N [Example 4-17-003, [5-amino-1-[4-(2-fluorophenoxy)-2-methylphenyl]pyrazol-4-yl]-[5-(difluoromethoxy)-6-(1-methylsulfonylpiperidin-4-yl)-1H-indol-2-yl]methanone] |
| 9.6 | 17 | 22 | Cc1cc(Oc2ccccc2F)ccc1-n1ncc(C(=O)c2cc3cc(OC(F)F)c(C4CCN(S(=O)(=O)C5CC5)CC4)cc3[nH]2)c1N [Example 4-17-004, [5-amino-1-[4-(2-fluorophenoxy)-2-methylphenyl]pyrazol-4-yl]-[6-(1-cyclopropylsulfonylpiperidin-4-yl)-5-(difluoromethoxy)-1H-indol-2-yl]methanone] |
| 2.9 | 17 | 36 | CC(=O)N1CCC(c2cc3[nH]c(C(=O)c4cnn(-c5c(C)cc(Oc6ccccc6F)cc5F)c4N)cc3cc2OC(F)F)CC1 [Example 4-17-005, 1-[4-[2-[5-amino-1-[2-fluoro-4-(2-fluorophenoxy)-6-methylphenyl]pyrazole-4-carbonyl]-5-(difluoromethoxy)-1H-indol-6-yl]piperidin-1-yl]ethanone] |
